Source: US8895561B2, “Compounds and methods for treating candidiasis and aspergillus infections” (Cellceutix Corporation, priority 2012, dated 2014)
Converted amounts (≈) assume the structure as drawn. Read-outs that look alike come from different tables or passages of the source.

Legend:
[1] = Cytotoxicity, MTS viability assay; assay type: cell-based, human; settings: Table 6
Description: (§1) Candida IC50s were determined by OD600 and fluorescence from vegetative cells and by MTS viability assay in the hyphal state. MICs were determined using a broth microdilution assay under standard CLSI conditions Bacteria strains: E. coli 25922 (EC), S. aureus 27660 (SA), E. faecalis 29212 (EF), P. aeruginosa 10145 (PA), and K. pneumoniae 13883 (KP). Cytotoxicity (EC50) was determined against mouse 3T3 fibroblasts, human transformed liver HepG2 cells, and human oral keratinocyte cell line, OKF6/TERT using an MTS viability assay. Candida IC50s<10 μg/mL, MICs<5 μg/mL and cytotoxicity EC50s>100 μM are indicated in green. MICs>5 μg/mL and cytotoxicity EC50s<100 μM are indicated in red.
(§2) Candida IC50s (CA) were determined by OD600 and fluorescence from vegetative cells. MICs were determined using a broth microdilution assay under standard CLSI conditions Bacteria strains: E. coli 25922 (EC), S. aureus 27660 (SA), E. faecalis 29212 (EF), P. aeruginosa 10145 (PA), and K. pneumoniae 13883 (KP). Cytotoxicity (EC50) was determined against mouse 3T3 fibroblasts and human transformed liver HepG2 cells using an MTS viability assay.
(§3) CLSI conditions Bacteria strains: clinical isolates; yeast strains: C. dubliniensis (NCPF3949), C. glabrata (ATCC 90030), C. krusei (ATCC 6258), C. parapsilosis (ATCC 22019), and C. tropicalis (ATCC 750). Cytotoxicity (EC50) was determined against mouse 3T3 fibroblasts, human transformed liver HepG2 cells, and human oral keratinocyte cell line, OKF6/TERT using an MTS viability assay.

[2] = tested on: A. niger (AN1); assay: Anti-Aspergillus screen, CLSI M38-A, visual inhibition of growth; assay type: cell-based; settings: screening concentration 10 μM, 24-48 hours
Description: (§4) The in vitro efficacy of a library of compounds was assessed for antifungal activity against A. niger (AN1), A. fumigatus ([…]) and A. flavus (NRRL3357) and compared to that of Itraconazole. For a subset of compounds selected based upon efficacy in the screening study a full MIC profile was conducted. Efficacy of test articles was determined in RPMI 1640 broth with MOPS buffered to pH7.2 in accordance with CLSI guidelines M38-A for Antifungal Susceptibility Testing of Filamentous Fungi. The method was modified by using flat well plates to allow microscopic identification of growth. The final screening concentration of each test article was 10 μM. Assay plates were incubated aerobically at 37° C. for 24-48 hours. Following incubation, plates were assessed visually (by eye and microscopically) for inhibition of growth. Inhibition was recorded at 50%, 80% and 100% inhibition compared to the positive control.

[3] = tested on: A. fumigatus (A1163); assay: as above; assay type: cell-based; settings: screening concentration 10 μM, 24-48 hours
Description: as §4

[4] = tested on: A. flavus (NRRL3357); assay: as above; assay type: cell-based; settings: screening concentration 10 μM, 24-48 hours
Description: as §4

[5] = tested on: C. albicans GDH2346; assay: Candida IC50, vegetative cells, by OD600 and fluorescence; assay type: cell-based; settings: for IC50: Candida albicans, GDH2346
Description: as §1, with “red. Candida IC50s (CA) were determined by OD600 and fluorescence from vegetative cells. MICs were determined using a broth microdilution assay under standard CLSI conditions Bacteria strains: E. coli 25922 (EC), S. aureus 27660 (SA), E. faecalis 29212 (EF), P. aeruginosa 10145 (PA), and K. pneumoniae 13883 (KP). Cytotoxicity (EC50) was determined against mouse 3T3 fibroblasts and human transformed liver HepG2 cells using an MTS viability assay. For determination of anti-Candida IC50s, the method was modified by using RPMI/MOPS buffer pH 6.3 and by addition of FDGlu, a substrate for the yeast enzyme exoglucanase which is secreted during cell growth. This provides a fluorescent readout for cell growth which was used in addition to the traditional optical density measure of growth. OD600 and fluorescence were determined at 24 and 48 hours and the average of all 4 reads was used for the final IC50 determination.” for “red.”

[6] = tested on: mouse 3T3 fibroblasts; assay: Cytotoxicity, MTS viability assay; assay type: cell-based
Description: as §1, §2, §3

[7] = tested on: human transformed liver HepG2 cells; assay: Cytotoxicity, MTS viability assay; assay type: cell-based
Description: as §1, §2, §3

[8] = tested on: human oral keratinocyte cell line, OKF6/TERT; assay: Cytotoxicity, MTS viability assay; assay type: cell-based
Description: as §1, §3

[9] = tested on: C. albicans GDH2346 hyphal biofilm; assay: Candida IC50 in the hyphal state / hyphal biofilm, MTS viability assay; assay type: cell-based; settings: Candida albicans; hyphal state; read-out: IC50 Candida, Hyphal
Description: Candida IC50s were determined by OD600 and fluorescence from vegetative cells and by MTS viability assay in the hyphal state. MICs were determined using a broth microdilution assay under standard CLSI conditions Bacteria strains: E. coli 25922 (EC), S. aureus 27660 (SA), E. faecalis 29212 (EF), P. aeruginosa 10145 (PA), and K. pneumoniae 13883 (KP). Cytotoxicity (EC50) was determined against mouse 3T3 fibroblasts, human transformed liver HepG2 cells, and human oral keratinocyte cell line, OKF6/TERT using an MTS viability assay. Candida IC50s<10 μg/mL, MICs<5 μg/mL and cytotoxicity EC50s>100 μM are indicated in green. MICs>5 μg/mL and cytotoxicity EC50s<100 μM are indicated in red. To form the biofilm, yeast were grown in RPMI/MOPS, 0.4% sucrose pH7.4 media supplemented with 10% FBS in tissue culture-treated flat bottom 96 well plates for 48 hours. The filamentous yeast cultures were then vigorously washed to remove any non-filamentous, non-attached yeast. The remaining attached filamentous biofilm yeast were incubated in saline containing serially diluted compounds for 24 hours. The cultures were aspirated to remove compound, rinsed and overlayed with RPMI/MOPS, 0.4% sucrose pH7.4 media. Biofilm viability was measured using a cell proliferation assay (CellTiter96 Aqueous Kit from Promega) and IC50s were determined using Prism GraphPad software (nonlinear fit, Table 3).

[10] = tested on: P. aeruginosa 10145; assay: Bacterial MIC, broth microdilution, CLSI; assay type: cell-based
Description: as §1, with “red. Candida IC50s (CA) were determined by OD600 and fluorescence from vegetative cells. MICs were determined using a broth microdilution assay under standard CLSI conditions Bacteria strains: E. coli 25922 (EC), S. aureus 27660 (SA), E. faecalis 29212 (EF), P. aeruginosa 10145 (PA), and K. pneumoniae 13883 (KP). Cytotoxicity (EC50) was determined against mouse 3T3 fibroblasts and human transformed liver HepG2 cells using an MTS viability assay.” for “red.”

[11] = tested on: E. coli 25922; assay: Bacterial MIC, broth microdilution, CLSI; assay type: cell-based
Description: as §1, with “red. Candida IC50s (CA) were determined by OD600 and fluorescence from vegetative cells. MICs were determined using a broth microdilution assay under standard CLSI conditions Bacteria strains: E. coli 25922 (EC), S. aureus 27660 (SA), E. faecalis 29212 (EF), P. aeruginosa 10145 (PA), and K. pneumoniae 13883 (KP). Cytotoxicity (EC50) was determined against mouse 3T3 fibroblasts and human transformed liver HepG2 cells using an MTS viability assay.” for “red.”

[12] = tested on: S. aureus 27660; assay: Bacterial MIC, broth microdilution, CLSI; assay type: cell-based
Description: as §1, with “red. Candida IC50s (CA) were determined by OD600 and fluorescence from vegetative cells. MICs were determined using a broth microdilution assay under standard CLSI conditions Bacteria strains: E. coli 25922 (EC), S. aureus 27660 (SA), E. faecalis 29212 (EF), P. aeruginosa 10145 (PA), and K. pneumoniae 13883 (KP). Cytotoxicity (EC50) was determined against mouse 3T3 fibroblasts and human transformed liver HepG2 cells using an MTS viability assay.” for “red.”

[13] = tested on: E. faecalis 29212; assay: Bacterial MIC, broth microdilution, CLSI; assay type: cell-based
Description: as §1, with “red. Candida IC50s (CA) were determined by OD600 and fluorescence from vegetative cells. MICs were determined using a broth microdilution assay under standard CLSI conditions Bacteria strains: E. coli 25922 (EC), S. aureus 27660 (SA), E. faecalis 29212 (EF), P. aeruginosa 10145 (PA), and K. pneumoniae 13883 (KP). Cytotoxicity (EC50) was determined against mouse 3T3 fibroblasts and human transformed liver HepG2 cells using an MTS viability assay.” for “red.”

[14] = tested on: K. pneumoniae 13883; assay: Bacterial MIC, broth microdilution, CLSI; assay type: cell-based; settings: Klebsiella pneumoniae
Description: as §1, with “red. Candida IC50s (CA) were determined by OD600 and fluorescence from vegetative cells. MICs were determined using a broth microdilution assay under standard CLSI conditions Bacteria strains: E. coli 25922 (EC), S. aureus 27660 (SA), E. faecalis 29212 (EF), P. aeruginosa 10145 (PA), and K. pneumoniae 13883 (KP). Cytotoxicity (EC50) was determined against mouse 3T3 fibroblasts and human transformed liver HepG2 cells using an MTS viability assay.” for “red.”

[15] = human, HepG2 cells (transformed liver), read-out: Cytotoxicity EC50 Human HepG2
[16] = mouse, 3T3 fibroblasts, read-out: Cytotoxicity EC50 Mouse 3T3
[17] = Table 6, read-out: IC50 C. albicans

SMILES: COc1cc(SCCNC(=N)N)c(C(F)(F)F)cc1NC(=O)c1cc(C(=O)Nc2cc(C(F)(F)F)c(SCCNC(=N)N)cc2OC)nc(SCCNC(=N)N)n1 [Cmpd 183]
- EC50 [1, 15]: ≥ 1000 µM
- EC50 [1, 16]: 478 µM
- inhibition at 10 µM [2]: 100%
- inhibition at 10 µM [3]: 100%
- inhibition at 10 µM [4]: 100%
- IC50 [5, 17]: 2 µg/mL (≈ 2.31 µM)

SMILES: COc1ccc(CNC(=N)N)cc1NC(=O)c1cc(C(=O)Nc2cc(CNC(=N)N)ccc2OC)c(OCCC(C)C)cc1OCCC(C)C [Cmpd 184]
- EC50 [1, 15]: 155 µM
- EC50 [1, 16]: ≥ 1000 µM
- inhibition at 10 µM [2]: 100%
- inhibition at 10 µM [3]: 100%
- inhibition at 10 µM [4]: 100%
- IC50 [5, 17]: 3.1 µg/mL (≈ 4.49 µM)

SMILES: NCCCOc1cccc(-n2cc(-c3ccc4ccc(-c5cn(-c6cccc(OCCCN)c6)nn5)cc4c3)nn2)c1 [Compound 138]
- IC50 ([6]; Mus musculus, NIH3T3, cytotoxicity): 406 µM
- IC50 ([7]; Homo sapiens, HepG2, cytotoxicity): 502 µM
- IC50 [8]: 491 µM
- IC50 [9]: 7.5 µg/mL (≈ 13.4 µM)
- IC50 ([5]; vegetative cells, read-out: IC50 Candida, Vegetative): 4.1 µg/mL (≈ 7.31 µM)
- EC50 ([10]; Pseudomonas aeruginosa, P. aeruginosa 10145): > 50 µg/mL
- EC50 ([11]; Escherichia coli, E. coli 25922): > 50 µg/mL
- EC50 ([12]; Staphylococcus aureus, S. aureus 27660): > 50 µg/mL
- EC50 ([13]; Enterococcus faecalis, E. faecalis 29212): > 50 µg/mL
- EC50 [14]: > 50 µg/mL

SMILES: NCCCn1c2cc(-c3ccc(CCN)c(CCN)c3)ccc2c2ccc(-c3ccc(CCN)c(CCN)c3)cc21 [Compound 159]
- EC50 [6]: 61 µM
- EC50 [7]: 64 µM
- CA (Candida IC50) ([5]; vegetative cells): 2.11 µg/mL
- PA (MIC) [10]: 6.25 µg/mL
- EC (MIC) [11]: 0.78 µg/mL
- SA (MIC) [12]: 0.78 µg/mL
- EF (MIC) [13]: 3.13 µg/mL
